Common to all, as to type: cell-based
One assay has as its target T1, STAT3 (Homo sapiens, UniProt P40763).
T1 construct: plasmid pSTAT3-TA-luc), which contains a stably operating STAT3 promoter; endogenous in cells
The assay can be described thus: STAT3 reporter gene assay (luciferase), LNCaP stable cell line (pSTAT3-TA-luc), IL-6 stimulation. In outline: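 LNCaP cells stably carrying pSTAT3-TA-luc, in RPMI1640 with 3% DCC-FBS, were treated with compound and then stimulated with 10 ng/mL IL-6 for 24–48 h at 37 °C. Luciferase activity was measured in lysates. A parallel plate measured viability by CellTiter-Glo, with stimulated 0.1% DMSO wells as the positive control.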
For orientation: A reporter such as luciferase makes a cellular process visible.

For another assay, the system named is MDA-MB-231. The assay can be described thus: Cell growth inhibition assay, breast cancer cell line MDA-MB-231. The settings on record: Homo sapiens; MDA-MB-231 breast cancer cell line, 5,000 cells/well.
For the next assay, the system named is LNCaP. The assay can be described thus: Cell growth inhibition assay, prostate cancer cell line LNCaP (medium with 10 ng/mL IL-6). The note with it: Homo sapiens, medium supplemented with 10 ng/mL of IL-6, 10,000 cells/well.
For another assay, the system named is DU-145. The assay can be described thus: Cell growth inhibition assay, prostate cancer cell line DU-145. The settings on record: Homo sapiens, DU-145 prostate cancer cell line. In outline: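 DU-145 and HCT116 cells were plated at 3,000 cells/well and SW626 at 5,000 cells/well, then treated with serially diluted compounds. After 72 to 96 hours at 37° C. under 5% CO2, viability was read by CellTiter-Glo luminescence against cell-free medium wells and 0.1% DMSO wells.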

T1 sequence (P40763 whole entry): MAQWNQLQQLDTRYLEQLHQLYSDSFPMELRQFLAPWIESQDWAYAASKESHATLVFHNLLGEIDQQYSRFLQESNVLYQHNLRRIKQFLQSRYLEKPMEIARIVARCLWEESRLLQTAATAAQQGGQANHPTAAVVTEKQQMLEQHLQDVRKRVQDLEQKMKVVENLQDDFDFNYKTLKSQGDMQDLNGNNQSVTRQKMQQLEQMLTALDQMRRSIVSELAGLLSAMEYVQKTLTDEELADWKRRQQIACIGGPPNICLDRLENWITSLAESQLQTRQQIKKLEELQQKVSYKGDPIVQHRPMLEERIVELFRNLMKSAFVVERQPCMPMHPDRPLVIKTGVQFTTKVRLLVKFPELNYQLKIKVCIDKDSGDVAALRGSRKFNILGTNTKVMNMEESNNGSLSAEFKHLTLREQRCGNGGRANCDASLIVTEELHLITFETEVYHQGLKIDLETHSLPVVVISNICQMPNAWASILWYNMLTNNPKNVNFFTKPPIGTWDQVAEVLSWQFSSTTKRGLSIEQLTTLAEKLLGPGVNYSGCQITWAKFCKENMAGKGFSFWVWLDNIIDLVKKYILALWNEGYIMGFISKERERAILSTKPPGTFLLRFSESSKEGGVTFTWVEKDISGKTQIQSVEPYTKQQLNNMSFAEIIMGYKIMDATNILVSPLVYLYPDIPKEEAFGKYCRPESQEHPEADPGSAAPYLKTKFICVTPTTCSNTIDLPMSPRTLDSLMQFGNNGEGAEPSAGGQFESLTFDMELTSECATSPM

With `COc1cc2cc(C(=O)Nc3cc(Br)cc(C(C)(C)c4ccc(F)cc4)c3)[nH]c2cc1NS(C)(=O)=O` [Example 19, N-(3-bromo-5-(2-(4-fluorophenyl)propan-2-yl)phenyl)-5-methoxy-6-(methylsulfonamido)-1H-indole-2-carboxamide], the IC50 – broadly, the concentration at which inhibition is half-maximal – at STAT3 is 0.12 µM; in the assay on MDA-MB-231, 0.088 µM; in the assay on LNCaP it was 0.52 µM; in the assay on DU-145, 0.15 µM.

On to `CC(C)(c1ccc(F)cc1)c1cc(Cl)cc(NC(=O)c2cc3ccc(NS(C)(=O)=O)cc3[nH]2)c1` [Example 21, N-(3-chloro-5-(2-(4-fluorophenyl)propan-2-yl)phenyl)-6-(methylsulfonamido)-1H-indole-2-carboxamide], for which the IC50 stood at 0.22 µM against STAT3, 0.054 µM in the assay on MDA-MB-231, 0.9 µM in the assay with LNCaP and 0.19 µM in the assay on DU-145.

For `CC(C)(c1ccc(F)cc1)c1cc(Br)cc(NC(=O)c2cc3cc(NS(C)(=O)=O)ccc3s2)c1` [Example 32, N-(3-bromo-5-(2-(4-fluorophenyl)propan-2-yl)phenyl)-5-(methylsulfonamido)benzo[b]thiophene-2-carboxamide], the IC50 is 0.034 µM at STAT3, 0.021 µM in the assay on MDA-MB-231, 0.15 µM in the assay on LNCaP and 0.044 µM in the assay with DU-145.

For the compound `COc1cc(OC(F)(F)F)cc(C(C)(C)c2cccc(NC(=O)c3cc4cc(NS(C)(=O)=O)ccc4s3)c2)c1` [Example 33, N-(3-(2-(3-methoxy-5-(trifluoromethoxy)phenyl)propan-2-yl)phenyl)-5-(methylsulfonamido)benzo[b]thiophene-2-carboxamide], the IC50 on STAT3 worked out at 0.035 µM; in the assay with MDA-MB-231, 0.003 µM; with LNCaP, 0.15 µM; with DU-145, 0.037 µM.

Take `CS(=O)(=O)Nc1ccc2sc(C(=O)Nc3cc(OC(F)F)cc(C4(c5ccc(F)cc5)CC4)c3)cc2c1` [Example 429, N-(3-(difluoromethoxy)-5-(1-(4-fluorophenyl)cyclopropyl)phenyl)-5-(methylsulfonamido)benzo[b]thiophene-2-carboxamide]: the 50% inhibitory concentration (IC50) stood at 0.19 µM on STAT3, 0.086 µM in the assay with MDA-MB-231 and 0.35 µM in the assay with LNCaP.

For the compound `CS(=O)(=O)Nc1ccc2cc(C(=O)Nc3cccc(C(=O)c4ccccc4)c3)[nH]c2c1` [Example 434, N-(3-benzoylphenyl)-6-(methylsulfonamido)-1H-indole-2-carboxamide], the IC50 against STAT3 was 6.5 µM; with MDA-MB-231, 2.9 µM; with LNCaP it was above 10 µM.

As for `CC(O)(c1ccccc1)c1cccc(NC(=O)c2cc3ccc(NS(C)(=O)=O)cc3[nH]2)c1` (stereo not shown) [Example 435, N-(3-(1-hydroxy-1-phenylethyl)phenyl)-6-(methylsulfonamido)-1H-indole-2-carboxamide], the concentration for half-maximal inhibition (IC50) against STAT3 was 5.8 µM; with MDA-MB-231, 4.3 µM; with LNCaP, above 10 µM.

As to `CC(C)(c1cccc(NC(=O)c2cc3ccc(N(CC(N)=O)S(C)(=O)=O)cc3[nH]2)c1)c1cc(O)cc(OC(F)(F)F)c1` [Example 436, 6-(N-(2-amino-2-oxoethyl)methylsulfonamido)-N-(3-(2-(3-hydroxy-5-(trifluoromethoxy)phenyl)propan-2-yl)phenyl)-1H-indole-2-carboxamide], the half-inhibitory concentration (IC50) was 5.2 µM at STAT3, 4.7 µM in the assay on MDA-MB-231 and above 10 µM in the assay on LNCaP.

Turning to `CC(C)(c1cccc(NC(=O)c2cc3ccc(N(CC(N)=O)S(C)(=O)=O)cc3[nH]2)c1)c1cc(OCC(N)=O)cc(OC(F)(F)F)c1` [Example 437, N-(3-(2-(3-(2-amino-2-oxoethoxy)-5-(trifluoromethoxy)phenyl)propan-2-yl)phenyl)-6-(N-(2-amino-2-oxoethyl)methylsulfonamido)-1H-indole-2-carboxamide], the IC50 on STAT3 is 6.3 µM; with MDA-MB-231, above 10 µM; with LNCaP it was above 10 µM.

For the origin of these results see patent US10562912B2 (C&C Research Laboratories, priority 2013, dated 2020).
